Data reported in paper PMC12977544, “Phenotypic high-throughput screening identifies modulators of gut microbial choline metabolism” (mBio, 2026).

Tested on: conventional C57BL/6 mice
Experiment: Serum TMAO in conventional mice after inhibitor treatment
Type: in vivo, Mus musculus C57BL/6
Protocol: In a biosafety cabinet, a 300 mg/mL stock of sterile inhibitor in filter-sterilized DMSO was prepared. After this preparation, a working solution of 3 mg/mL of the inhibitor stock in sterile 1% hydroxyethyl cellulose/1% polysorbate 80 was prepared within 4 days of gavaging the mice and stored at room temperature. A low dose of the inhibitor was also prepared, using a working solution of 0.3 mg/mL of the inhibitor stock in sterile 1% hydroxyethyl cellulose/1% polysorbate 80. The vehicle was prepared in the same way with DMSO without inhibitor. […] All mice were administered by gavage with 3 mg/kg or 30 mg/kg of the inhibitor once a day (between 6 and 8 a.m.) for three consecutive days. A fecal sample was collected before the first gavage. At sacrifice, tissues collected were blood, cecal contents, a fecal pellet, proximal colon, distal small intestine, liver, and kidney. Mice were anesthetized with isoflurane and underwent cardiac puncture for a terminal blood draw, followed by cervical dislocation. Tissues were snap-frozen in liquid nitrogen. Blood was spun down at 8,000 × g for 8 min at room temperature; the resulting serum layer was removed and snap-frozen. […] […] was used for peak quantification, and internal standards were utilized as a comparison to calculate plasma concentrations. Statistical significance was calculated using an unpaired t-test.

Cc1ccc(-c2cc(C(=O)NCCCCCN3CCCCCC3)c(C)[nH]2)cc1C [Compound 45]
Serum TMAO level relative to vehicle treatment (30 mg/kg oral gavage daily for 3 days, 1% choline diet, P = 0.027): about 60 % of vehicle treatment | Decrease of serum TMAO levels (30 mg/kg, n = 6, P = 0.027): ~ 40%
